According to patent publication US8354441B2, “Oxazoline derivatives” (Hoffmann-La Roche Inc., priority 2009, dated 2013):

Assays:
[1] = target: T1, rat TAAR1 (Rattus norvegicus, UniProt Q923Y9); assay: TAAR1 radioligand binding with [3H]-rac-2-(1,2,3,4-tetrahydro-1-naphthyl)-2-imidazoline, membranes of stably transfected HEK293 cells; settings: second value of the cell, read-out: Ki (μM) mouse/rat: rat
T1 construct: expressed in transfected cells; host or cells: HEK293 (ATCC # CRL-1573), stably transfected with pIRESneo2 expression plasmid
T1 sequence (Q923Y9 whole entry): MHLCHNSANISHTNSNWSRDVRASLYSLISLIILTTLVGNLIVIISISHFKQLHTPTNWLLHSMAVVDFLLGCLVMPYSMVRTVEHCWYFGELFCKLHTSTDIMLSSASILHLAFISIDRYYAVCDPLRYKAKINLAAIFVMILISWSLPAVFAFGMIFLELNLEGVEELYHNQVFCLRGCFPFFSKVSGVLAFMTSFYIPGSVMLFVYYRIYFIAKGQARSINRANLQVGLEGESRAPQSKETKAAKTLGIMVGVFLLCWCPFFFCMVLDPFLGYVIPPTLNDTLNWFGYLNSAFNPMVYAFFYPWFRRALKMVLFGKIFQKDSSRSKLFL
Method in brief: (§1)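 Competition binding: competitors spanning 10 pM–30 μM displace 60 nM [3H]-rac-2-(1,2,3,4-tetrahydro-1-naphthyl)-2-imidazoline from stably transfected HEK293 membranes (mouse or rat receptor), 30 min, 4 °C, pH 7.0 buffer with Mg2+/Ca2+. Bound label counted after GF/C filtration; 10 μM unlabelled ligand defines non-specific binding.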

[2] = target: T2, mouse TAAR1 (Mus musculus, UniProt Q923Y8); assay: as above; settings: first value of the cell, read-out: Ki (μM) mouse/rat: mouse
T2 construct: expressed in transfected cells; host or cells: HEK293 (ATCC # CRL-1573), stably transfected with pIRESneo2 expression plasmid
T2 sequence (Q923Y8 whole entry): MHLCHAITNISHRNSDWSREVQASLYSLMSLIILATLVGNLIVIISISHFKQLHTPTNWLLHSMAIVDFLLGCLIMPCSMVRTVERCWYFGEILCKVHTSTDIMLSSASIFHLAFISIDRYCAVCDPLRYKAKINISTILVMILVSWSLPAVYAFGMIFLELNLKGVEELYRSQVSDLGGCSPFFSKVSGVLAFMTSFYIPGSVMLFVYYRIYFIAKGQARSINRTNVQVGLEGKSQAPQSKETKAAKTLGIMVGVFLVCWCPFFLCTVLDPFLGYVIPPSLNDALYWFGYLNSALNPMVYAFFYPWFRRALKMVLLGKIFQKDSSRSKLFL
Method in brief: as §1

Row | SMILES | Ki [1] | Ki [2]
1 | CC[C@@H](C[C@H]1COC(N)=N1)c1ccc(NC(=O)Nc2ccc(F)cc2)cc1 [Example 12, 1-{4-[(S)-1-((S)-2-Amino-4,5-dihydro-oxazol-4-ylmethyl)-propyl]-phenyl}-3-(4-fluoro-phenyl)-urea] | 0.002 µM | 0.0012 µM
2 | NC1=N[C@@H](CCc2ccc(NC(=O)Nc3ccc(Cl)cc3)cc2)CO1 [Example 3, 1-{4-[2-((S)-2-Amino-4,5-dihydro-oxazol-4-yl)-ethyl]-phenyl}-3-(4-chloro-phenyl)-urea] | 0.0003 µM | 0.0002 µM
3 | NC1=N[C@@H](CCc2ccc(NC(=O)c3nccc4ccccc34)cc2)CO1 [Example 93, Isoquinoline-1-carboxylic acid {4-[2-((S)-2-amino-4,5-dihydro-oxazol-4-yl)-ethyl]-phenyl}-amide] | 0.0003 µM | 0.0016 µM
4 | CCc1cnc(C(=O)Nc2ccc(CC[C@@H]3N=C(N)O[C@H]3C)cc2)cn1 [Example 227, 5-Ethyl-pyrazine-2-carboxylic acid {4-[2-((4S,5S)-2-amino-5-methyl-4,5-dihydro-oxazol-4-yl)-ethyl]-phenyl}-amide] | 0.0059 µM | 0.007 µM
5 | NC1=N[C@@H](CCc2ccc(NC(=O)C3CCCC3)cc2)CO1 [Example 43, Cyclopentanecarboxylic acid {4-[2-((S)-2-amino-4,5-dihydro-oxazol-4-yl)-ethyl]-phenyl}-amide] | 0.002 µM | 0.0029 µM
6 | CC(C)c1cc(C(=O)Nc2ccc(CC[C@H]3COC(N)=N3)cc2)ccn1 [Example 198, (S)-N-(4-(2-(2-Amino-4,5-dihydrooxazol-4-yl)ethyl)phenyl)-2-isopropylisonicotinamide] | 0.0029 µM | 0.0036 µM
7 | CCCc1ccc(C(=O)Nc2ccc(CC[C@H]3COC(N)=N3)cc2)cc1 [Example 61, N-{4-[2-((S)-2-Amino-4,5-dihydro-oxazol-4-yl)-ethyl]-phenyl}-4-propyl-benzamide] | 0.0007 µM | 0.0002 µM
8 | Cc1cc(C(=O)Nc2ccc(CC[C@H]3COC(N)=N3)cc2)ccn1 [Example 172, (S)-N-(4-(2-(2-Amino-4,5-dihydrooxazol-4-yl)ethyl)phenyl)-2-methylisonicotinamide] | 0.0019 µM | 0.0084 µM
9 | C#Cc1ccc(NC(=O)c2ccc(CC[C@H]3COC(N)=N3)cc2)nc1 [Example 152, (S)-4-(2-(2-Amino-4,5-dihydrooxazol-4-yl)ethyl)-N-(5-ethynylpyridine-2-yl)benzamide] | 0.0002 µM | 0.008 µM
10 | Cc1nc(C(=O)Nc2ccc(CC[C@H]3COC(N)=N3)cc2)c(C)o1 [Example 179, (S)-N-(4-(2-(2-Amino-4,5-dihydrooxazol-4-yl)ethyl)phenyl)-2,5-dimethyloxazole-4-carboxamide] | 0.0023 µM | 0.0059 µM
11 | NC1=N[C@@H](CCc2ccc(NC(=O)c3ccc(Br)nc3)cc2)CO1 [Example 106, N-{4-[2-((S)-2-Amino-4,5-dihydro-oxazol-4-yl)-ethyl]-phenyl}-6-bromo-nicotinamide] | 0.0009 µM | 0.0012 µM
12 | N#Cc1ccc(C(=O)Nc2ccc(CC[C@H]3COC(N)=N3)cc2)cn1 [Example 111, N-{4-[2-((S)-2-Amino-4,5-dihydro-oxazol-4-yl)-ethyl]-phenyl}-6-cyano-nicotinamide] | 0.0057 µM | 0.004 µM
13 | Cc1ocnc1C(=O)Nc1ccc(CC[C@@H]2N=C(N)O[C@H]2C)cc1 [Example 222, 5-Methyl-oxazole-4-carboxylic acid {4-[2-((4S,5S)-2-amino-5-methyl-4,5-dihydro-oxazol-4-yl)-ethyl]-phenyl}-amide] | 0.004 µM | 0.0071 µM
14 | NC1=N[C@@H](CCc2ccc(NC(=O)c3ccc4cccnc4n3)cc2)CO1 [Example 105, [1,8]Naphthyridine-2-carboxylic acid {4-[2-((S)-2-amino-4,5-dihydro-oxazol-4-yl)-ethyl]-phenyl}-amide] | 0.0011 µM | 0.0051 µM
